Experimental data from US7067656B2, “Sulfamoyl compounds and agricultural and horticultural fungicides” (Nissan Chemical Industries, Ltd., priority 1997, dated 2006).

Q: For `CN(C)S(=O)(=O)n1cnc(C(=O)c2ccc(C(F)(F)F)cc2)n1` [11-19(a), 1-dimethylsulfamoyl-3-(4-trifluoromethylbenzoyl)-1,2,4-triazole], which melting point is on record?
A: 121 to 122 °C

Q: Which melting point does the source give for `Cc1c(Cl)c(-c2ccccc2)nn1S(=O)(=O)c1ncn(S(=O)(=O)N(C)C)n1` [8-11(a), 1-(N,N-dimethylsulfamoyl)-3-(3-phenyl-4-chloro-5-methylpyrazol-1-yl)sulfonyl-1,2,4-triazole] here?
A: 125 to 128 °C

Q: Which melting point does the source give for `Cc1c(Cl)c2ccccc2n1S(=O)(=O)c1ncn(S(=O)(=O)N(C)C)n1` [1-33(a), 1-(N,N-dimethylsulfamoyl)-3-(2-methyl-3-chloroindol-1-yl)sulfonyl-1,2,4-triazole] here?
A: 120 to 122 °C

Q: For `CN(C)S(=O)(=O)n1cnc(S(=O)(=O)n2nc(Cl)c3ccccc32)n1` [7-5(a), 1-(N,N-dimethylsulfamoyl)-3-(3-chloroindazol-1-yl)sulfonyl-1,2,4-triazole], which melting point is on record?
A: 164 to 165 °C
